Results published in patent publication US20020016330A1, “Materials and methods for killing nematodes and nematode eggs” (priority 2000, published 2002).

System: Caenorhabditis elegans
Assay: C. elegans L1 nematicidal dose response, 5 day visual viability score (3-fold dilutions)
Type: in vivo
Design: key: Dead: only stiff L1s (no movement); Dead (L4): worms are dead, but at a later larval stage; majority of worms are L1 (based on size); majority of worms are L2 (based on size); majority of worms are L3 (based on size); majority of worms are L4 (based on size); AD: majority of worms are adult; #AD: 5 adult worms or less; B!: sterile (0-25 progeny); B: low broodsize (25-100 progeny); ˜B: moderate broodsize (100-250 progeny); <: reduced broodsize (250-500 progeny); OK: no effect (˜1000+ progeny)
Conditions: scored day 5; for 5 Day Visual Score V4: 2.6 μM; for 5 Day Visual Score V5: 0.9 μM; for 5 Day Visual Score V3: 7.8 μM; for 5 Day Visual Score V2: 23.3 μM; for 5 Day Visual Score V1: 70 μM; for 5 Day Visual Score V6: 0.3 μM
Procedure: Caenorhabditis elegans adults were grown on Nematode Growth Medium (NGM) until they produced eggs, then the adults were removed.
The eggs were allowed to hatch, and the L1 larvae collected. See The Nematode Caenorhabditis elegans (1988) Cold Spring Harbor Laboratory Press. Using a Matrix Programmable Pipette, the L1s were distributed into 96-well tissue culture plates, 20 L1 in 50 μl NGM per well. Antibiotic/Antimyotic was added to each well, and 1% by weight E. coli strain HB101. The subject anthelmintic compounds were stored at 5 mM in 100% DMSO. 0.7 μl of compounds 1-31 were added to the left-most column of wells to yield a final concentration of 70 μM in 1.4% DMSO, with 1.4% DMSO only as the control. The compounds were then subjected to 5 more 3-fold dilutions from left to right to yield 6 column concentrations of 70 μM, 23.3 μM, 7.8 μM, 2.6 μM, 0.9 μM, and 0.3 μM. Plates were stored in air-tight Rubbermaid plastic boxes at 20° C. The nematodes had cleared all control wells by day 4, and nematode viability was scored by visual examination under a 100× dissecting microscope on day 5. A visual viability scoring system was used as follows:
Column VI has a compound concentration of 70 μM with sequential 3-fold dilutions reported in columns V2, V3, V4, V5, and V6, respectively, such that the V6 concentration was 0.3 μM.
The nematicidal activity of anthelmintic Compositions 48-68 were determined in accordance with the procedure outlined in Example 2.

Row | SMILES | 5 Day Visual Score V4 | 5 Day Visual Score V5 | 5 Day Visual Score V3 | 5 Day Visual Score V2 | 5 Day Visual Score V1 | 5 Day Visual Score V6
1 | CCCCOc1ccc(C(=O)N2CC(OCCCc3ccccc3)CC2C(=O)NCc2ccccc2Br)cc1 (stereo not drawn) [AKC 102] | L3 |  |  |  |  | 
2 | CCCCOc1ccc(-c2noc(C3CCC(NC(=O)c4ccc5c(c4)OCO5)CC3)n2)cc1 (stereo not drawn) [AKC 103] |  | L4/#AD/B | Dead(L4) | Dead(L3/L4 |  | 
3 | CCOc1ccccc1C1=NOC(c2cccc3ccccc23)C1C(=O)NCc1ccc(OC(F)(F)F)cc1 (stereo not drawn) [AKC 105] | L2/Dead(L | L2/Dead(L | L2/Dead(L3) | L2/Dead(L3) | L2/Dead(L3) | 
4 | O=C(Nc1ccc(OC(F)(F)F)cc1)NC1CCC(c2nc(-c3ccccc3)no2)CC1 (stereo not drawn) [AKC 107] | Dead(L4) |  |  | Dead(L2/L3) | Dead | L2/Dead(L
5 | O=C(Nc1ccc(Br)cc1)N1CCC(c2nc(-c3ccccc3)no2)CC1 [AKC 108] | L1 |  | L1 | Dead | Dead | 
6 | O=C(NCCc1ccccc1F)C1C(c2ccccc2Cl)=NOC1c1ccc(-c2ccccc2)cc1 (stereo not drawn) [AKC 110] | L1 | L1 | L1 | L1 | L1 | L1
7 | COc1ccccc1-c1noc(C(C)CNC(=O)Nc2ccc(OC(F)(F)F)cc2)n1 (stereo not drawn) [AKC 111] | Dead(L3/L |  | L2 | Dead | Dead | OK (no effect (˜1000+ progeny))
8 | Cc1ccc(-c2noc(C3CCC(CNC(=O)Nc4ccc(OC(F)(F)F)cc4)CC3)n2)cc1C (stereo not drawn) [AKC 112] |  | #AD/˜B |  |  |  | OK (no effect (˜1000+ progeny))
9 | O=C(NCC1CCC(c2nc(-c3ccccc3)no2)CC1)Nc1ccc(OC(F)(F)F)cc1 (stereo not drawn) [AKC 113] | Dead(L2/L |  | Dead | Dead | Dead | L4/#AD/B
10 | O=C(Nc1ccc(Br)cc1)NC1CCC(c2nc(-c3ccccc3)no2)CC1 (stereo not drawn) [AKC 114] | L3/Dead(L |  | L3 | L3/Dead(L4) | Dead | 
11 | O=C(NCCCCCc1nc(-c2ccccc2)no1)Nc1ccc(OC(F)(F)F)cc1 [AKC 115] | Dead(L2) | Dead(L2/L | L2/Dead(L2) | Dead(L2/L3) | Dead | 
12 | CC(C)(C)C1=NOC(c2ccc(-c3ccccc3)cc2)C1C(=O)NCCc1ccccc1F (stereo not drawn) [AKC 120] |  | #AD/˜B | L1 |  | L1 | OK (no effect (˜1000+ progeny))
13 | COc1ccc(C2=NOC(c3ccc(-c4ccccc4)cc3)C2C(=O)NCCc2ccccc2F)cc1 (stereo not drawn) [AKC 121] | #AD/˜B |  |  | L1 | L1 | 
14 | CCOc1ccc(C2ON=C(c3ccc(F)cc3)C2C(=O)NCCc2ccc(F)cc2)cc1 (stereo not drawn) [AKC 122] |  |  |  | L1 | Dead | OK (no effect (˜1000+ progeny))
15 | CCOc1ccc(C2ON=C(c3ccc(N(C)C)cc3)C2C(=O)NCCc2ccc(F)cc2)cc1 (stereo not drawn) [AKC 123] |  |  |  |  | L1 | #AD/˜B
16 | CCOc1cccc(C2ON=C(c3ccccc3OCC)C2C(=O)NCCc2ccc(OC)c(OCC)c2)c1 (stereo not drawn) [AKC 124] | L4/#AD/B | L4/#AD/B |  |  |  | L4/#AD/B
17 | CCOc1cccc(C2ON=C(c3ccccc3OCC)C2C(=O)NCc2ccc(OC(F)(F)F)cc2)c1 (stereo not drawn) [AKC 125] | L2 |  | L2 | L2/Dead(L4) | L2/Dead(L3) | 
